Measurements from paper PMC3378808 (Biochimica et Biophysica Acta, 2012).

T1: TMD of integrin αIIb (Homo sapiens, UniProt P08514)
T1 sequence (P08514 994-1019 limits assumed): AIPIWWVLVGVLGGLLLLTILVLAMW


Assays:
[1] = system: NO production (NF-κB downstream signaling); assay: Nitric oxide; format: cell-based, human; settings: 100 μM, EBV positive B 721 cells, 48 h
TMD-5 peptide = TMD-5 peptide (Epstein-Barr virus, UniProt P03230); assay: NMR titration; format: binding; settings: 500 MHz, POPC/DHPC bicelles, 37 °C
LMP-1 TMD-5 = LMP-1 TMD-5 (Epstein-Barr virus, UniProt P03230); format: cell-based
[2] = biological target: 12 representative kinases (AKT1, CAMK1, DDR2, GSK-3α, MAPK1, MET, PAK1, PDGFRB, PIM1, PKC-γ, PLK4, SRC); assay: Kinase profiling; format: biochemical; settings: 50 μM compound
CAMK1 = CAMK1 (Homo sapiens, UniProt Q14012); assay: Kinase profiling; format: biochemical; settings: 50 μM compound
Chain of CAMK1 (Q14012 whole entry, species assumed): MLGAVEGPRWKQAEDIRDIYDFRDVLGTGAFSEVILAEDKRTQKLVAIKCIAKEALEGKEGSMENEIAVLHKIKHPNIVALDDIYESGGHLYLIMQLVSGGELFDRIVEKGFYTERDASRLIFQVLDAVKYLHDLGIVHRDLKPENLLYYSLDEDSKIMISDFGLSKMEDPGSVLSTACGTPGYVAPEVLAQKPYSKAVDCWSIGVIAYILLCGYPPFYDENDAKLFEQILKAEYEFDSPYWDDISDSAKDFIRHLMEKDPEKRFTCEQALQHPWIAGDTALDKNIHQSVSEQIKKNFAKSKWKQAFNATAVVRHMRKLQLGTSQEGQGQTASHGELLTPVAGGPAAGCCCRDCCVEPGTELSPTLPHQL

[3] = biological target: coumarin labeled TMD-5 peptide (LMP-1) (Epstein-Barr virus, UniProt P03230); assay: Coumarin fluorescence dequenching assay; format: binding
[4] = system: TMD of diacylglycerol kinase (DAGK); format: cell-based; settings: ToxR assay, Figure 3c
TMD of integrin αIIb = biological target: T1, TMD of integrin αIIb; assay: ToxR reporter assay of integrin αIIb TMD oligomerization; format: cell-based; settings: Figure 3c
split luciferase = split luciferase (Photinus pyralis, UniProt P08659); assay: Split luciferase false-positive control; format: biochemical; settings: false positive evaluation
Chain of split luciferase (P08659 2-416 limits assumed): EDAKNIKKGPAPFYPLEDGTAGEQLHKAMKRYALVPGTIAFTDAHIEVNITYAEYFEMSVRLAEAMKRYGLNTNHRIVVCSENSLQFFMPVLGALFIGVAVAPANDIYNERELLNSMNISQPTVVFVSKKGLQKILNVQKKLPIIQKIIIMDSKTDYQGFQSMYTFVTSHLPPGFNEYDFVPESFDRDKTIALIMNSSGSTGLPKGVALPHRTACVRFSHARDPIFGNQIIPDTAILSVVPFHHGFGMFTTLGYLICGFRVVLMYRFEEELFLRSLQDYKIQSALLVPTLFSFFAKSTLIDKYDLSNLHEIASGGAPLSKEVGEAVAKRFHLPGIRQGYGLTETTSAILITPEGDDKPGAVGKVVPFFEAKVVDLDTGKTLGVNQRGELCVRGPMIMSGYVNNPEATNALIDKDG

TMD-5 trimer = TMD-5 trimer (Epstein-Barr virus, UniProt P03230); assay: Bis-Tris SDS-PAGE of TMD-5 after NMR titration; format: binding; settings: compound to TMD-5 ratio 4:1
PDGFRB = PDGFRB (Homo sapiens, UniProt P09619); assay: Kinase profiling; format: biochemical; settings: 50 μM compound
Chain of PDGFRB (P09619 33-1106, species assumed): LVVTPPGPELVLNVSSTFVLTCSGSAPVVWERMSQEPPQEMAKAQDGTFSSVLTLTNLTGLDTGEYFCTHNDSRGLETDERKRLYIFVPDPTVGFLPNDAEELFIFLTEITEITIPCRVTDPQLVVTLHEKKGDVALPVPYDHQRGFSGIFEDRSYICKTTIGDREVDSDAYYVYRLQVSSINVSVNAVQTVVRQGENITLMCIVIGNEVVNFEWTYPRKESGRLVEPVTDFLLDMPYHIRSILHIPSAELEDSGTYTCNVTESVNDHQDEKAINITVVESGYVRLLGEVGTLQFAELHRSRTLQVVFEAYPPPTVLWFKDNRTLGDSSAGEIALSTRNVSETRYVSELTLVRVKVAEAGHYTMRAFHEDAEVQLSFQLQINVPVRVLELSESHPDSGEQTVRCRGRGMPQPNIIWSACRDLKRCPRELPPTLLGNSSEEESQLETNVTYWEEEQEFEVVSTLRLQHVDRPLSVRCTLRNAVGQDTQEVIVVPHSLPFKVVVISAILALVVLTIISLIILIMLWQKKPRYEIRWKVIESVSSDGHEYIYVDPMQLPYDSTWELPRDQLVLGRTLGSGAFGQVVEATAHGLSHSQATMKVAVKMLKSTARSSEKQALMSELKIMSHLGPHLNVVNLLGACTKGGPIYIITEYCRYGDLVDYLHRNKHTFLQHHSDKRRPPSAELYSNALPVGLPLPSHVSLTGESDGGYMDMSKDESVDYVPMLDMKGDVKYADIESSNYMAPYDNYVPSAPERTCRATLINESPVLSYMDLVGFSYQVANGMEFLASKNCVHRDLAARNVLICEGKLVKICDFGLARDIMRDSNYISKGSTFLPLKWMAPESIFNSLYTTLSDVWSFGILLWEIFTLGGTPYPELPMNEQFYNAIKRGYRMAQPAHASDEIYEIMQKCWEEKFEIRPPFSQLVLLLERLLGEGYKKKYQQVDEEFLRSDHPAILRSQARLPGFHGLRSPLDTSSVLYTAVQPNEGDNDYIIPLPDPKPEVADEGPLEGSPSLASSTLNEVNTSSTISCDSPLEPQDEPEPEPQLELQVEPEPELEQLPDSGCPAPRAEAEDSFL

[5] = system: B lymphoblastoid cell line 721; settings: 100 μM, B 721 cells, 48 h, WST-1
[6] = system: full-length LMP-1-mediated NF-κB activity; assay: NF-κB luciferase reporter assay in EBV positive B 721 cells; format: cell-based; settings: Homo sapiens, B721, 48 h, read-out: IC50 of NF-κB activation
Bis-Tris SDS-PAGE = biological target: the molecule itself; assay: Bis-Tris SDS-PAGE

Molecule | effect on NO over-production [1] | chemical shift changes of TMD-5 on titration (TMD-5 peptide) | IC50 (LMP-1 TMD-5; read-out: IC50 to disrupt TMD-5 oligomerization in whole cells, ToxR assay, dose-dependent titration) | kinase activity retained (ten out of twelve kinases) [2] | inhibition of CAMK1 (CAMK1) | coumarin labeled TMD-5 fluorescence increase without detergent ([3]; in the absence of C14 betaine detergent) | inhibition of DAGK TMD oligomerization [4] | inhibition of integrin αIIb TMD oligomerization (TMD of integrin αIIb) | inhibition of luciferase control (split luciferase) | disruption of TMD-5 trimer to monomer on SDS-PAGE (TMD-5 trimer) | inhibition of PDGFRB (PDGFRB) | cytotoxicity / growth inhibition [5] | inhibition of TMD-5 oligomerization (ToxR assay), in words (LMP-1 TMD-5; Figure 3e/3f) | disruption of TMD-5 association (coumarin fluorescence dequenching), in words ([3]; 100 nM coumarin-labeled TMD-5, 150 μM C14 betaine, pH 7.4) | IC50 [6] | stoichiometry N (Bis-Tris SDS-PAGE)
N=C(N)c1ccc(C=Cc2ccc(C(=N)N)cc2O)cc1.O=S(=O)(O)CCO.O=S(=O)(O)CCO [Compound 1] | suppress NO over-production | induced chemical shift changes at a number of sites including the deeply buried Asp 150 | 90 ± 10.5 µM | > 95% | approximately 20% | failed to cause coumarin labeled TMD-5 fluorescence increase | did not inhibit DAGK TMD oligomerization | No apparent oligomerization inhibition | did not inhibit luciferase control | disrupts the TMD-5 trimer | approximately 20% | No apparent growth inhibition |  |  |  | 
C(=Cc1ccc(-c2nc(-c3ccccc3)nc(-c3ccccc3)n2)cc1)c1ccc(-c2nc(-c3ccccc3)nc(-c3ccccc3)n2)cc1 [Compound 6, 2,2'-(1,2-ethenediyldi-4,1-phenylene)bis(4,6-diphenyl-1,3,5-triazine), reference compound] | no significant inhibition activity |  |  |  |  |  |  |  |  |  |  |  | did not inhibit TMD-5 oligomerization | did not inhibit TMD-5 oligomerization | 180 ± 27.5 µM | 
GGPGWQLLAFFLAFFLDLILLIIALYLGPGG [TMD-5 peptide (GGPG-WQLLAFFLAFFLDLILLIIALYL-GPGG) derived from LMP-1] |  |  |  |  |  |  |  |  |  |  |  |  |  |  |  | 3
